Columns and labels:
[1] = biological target: T1, TRPM4 (Mus musculus, UniProt Q7TN37); assay: TRPM4 current in cilia of TRPM3-knockout mIMCD-3 cells; assay type: biochemical, murine; details: 2 mM cytoplasmic MgATP, cilia lacking TRPM3
T1 construct: endogenous in cells; host or cells: mIMCD-3 cell line with TRPM3 knocked out by CRISPR/Cas9; excised primary cilia
From the text: The large-conductance ciliary channel is not detectable unless TRPP2 is expressed. Given the pharmacological similarities between the ciliary TRPP2-dependent channel and TRPM3, we investigated whether the ciliary channel also requires expression of TRPM3. We used an mIMCD-3 cell line in which TRPM3 was knocked out by CRISPR/Cas9 genome editing. In electrical recordings from the primary cilia of cells lacking TRPM3, the large-conductance channel was never seen (n=45, Table 1, TRPM3 KO). […] Knocking out TRPM3 had no effect on the activity of another ciliary channel, TRPM4. In 17 cilia tested from TRPM3-knockout cells, 1 mM cytoplasmic Ca^2+ on average activated a current at +100 mV of 47±7 pA. […] As in cilia of wild-type cells, 2 mM cytoplasmic MgATP blocked the TRPM4 current. […]
All recordings were done under voltage clamp at room temperature (24° C.). […] Total mean channel current was measured as the mean current minus the current attributed to leak channels. The latter was determined from an amplitude histogram. […] Channel open probabilities were determined from amplitude histograms and are reported only when the number of channels in the membrane was unambiguous. The presence or absence of active TRPP2 channels was assessed with the cilium or patch exposed to 3 μM cytoplasmic Ca^2+ and the voltage clamped to +40 mV. […]

[2] = biological target: T2, TRPP2-dependent channels (Mus musculus, UniProt J9SQF3); assay: Incidences of TRPP2-dependent channels in apical and ciliary membranes; assay type: biochemical, murine; details: for incidence of TRPP2-dependent channels: PS 75 or 230 μM external, 3 μM cytoplasmic Ca2+, +40 mV
T2 construct: Electrical recordings were made from primary cilia of mIMCD-3 cells; host or cells: mIMCD-3 cells, excised primary cilia (inside-out) or apical membrane patches
T2 sequence (J9SQF3 whole entry): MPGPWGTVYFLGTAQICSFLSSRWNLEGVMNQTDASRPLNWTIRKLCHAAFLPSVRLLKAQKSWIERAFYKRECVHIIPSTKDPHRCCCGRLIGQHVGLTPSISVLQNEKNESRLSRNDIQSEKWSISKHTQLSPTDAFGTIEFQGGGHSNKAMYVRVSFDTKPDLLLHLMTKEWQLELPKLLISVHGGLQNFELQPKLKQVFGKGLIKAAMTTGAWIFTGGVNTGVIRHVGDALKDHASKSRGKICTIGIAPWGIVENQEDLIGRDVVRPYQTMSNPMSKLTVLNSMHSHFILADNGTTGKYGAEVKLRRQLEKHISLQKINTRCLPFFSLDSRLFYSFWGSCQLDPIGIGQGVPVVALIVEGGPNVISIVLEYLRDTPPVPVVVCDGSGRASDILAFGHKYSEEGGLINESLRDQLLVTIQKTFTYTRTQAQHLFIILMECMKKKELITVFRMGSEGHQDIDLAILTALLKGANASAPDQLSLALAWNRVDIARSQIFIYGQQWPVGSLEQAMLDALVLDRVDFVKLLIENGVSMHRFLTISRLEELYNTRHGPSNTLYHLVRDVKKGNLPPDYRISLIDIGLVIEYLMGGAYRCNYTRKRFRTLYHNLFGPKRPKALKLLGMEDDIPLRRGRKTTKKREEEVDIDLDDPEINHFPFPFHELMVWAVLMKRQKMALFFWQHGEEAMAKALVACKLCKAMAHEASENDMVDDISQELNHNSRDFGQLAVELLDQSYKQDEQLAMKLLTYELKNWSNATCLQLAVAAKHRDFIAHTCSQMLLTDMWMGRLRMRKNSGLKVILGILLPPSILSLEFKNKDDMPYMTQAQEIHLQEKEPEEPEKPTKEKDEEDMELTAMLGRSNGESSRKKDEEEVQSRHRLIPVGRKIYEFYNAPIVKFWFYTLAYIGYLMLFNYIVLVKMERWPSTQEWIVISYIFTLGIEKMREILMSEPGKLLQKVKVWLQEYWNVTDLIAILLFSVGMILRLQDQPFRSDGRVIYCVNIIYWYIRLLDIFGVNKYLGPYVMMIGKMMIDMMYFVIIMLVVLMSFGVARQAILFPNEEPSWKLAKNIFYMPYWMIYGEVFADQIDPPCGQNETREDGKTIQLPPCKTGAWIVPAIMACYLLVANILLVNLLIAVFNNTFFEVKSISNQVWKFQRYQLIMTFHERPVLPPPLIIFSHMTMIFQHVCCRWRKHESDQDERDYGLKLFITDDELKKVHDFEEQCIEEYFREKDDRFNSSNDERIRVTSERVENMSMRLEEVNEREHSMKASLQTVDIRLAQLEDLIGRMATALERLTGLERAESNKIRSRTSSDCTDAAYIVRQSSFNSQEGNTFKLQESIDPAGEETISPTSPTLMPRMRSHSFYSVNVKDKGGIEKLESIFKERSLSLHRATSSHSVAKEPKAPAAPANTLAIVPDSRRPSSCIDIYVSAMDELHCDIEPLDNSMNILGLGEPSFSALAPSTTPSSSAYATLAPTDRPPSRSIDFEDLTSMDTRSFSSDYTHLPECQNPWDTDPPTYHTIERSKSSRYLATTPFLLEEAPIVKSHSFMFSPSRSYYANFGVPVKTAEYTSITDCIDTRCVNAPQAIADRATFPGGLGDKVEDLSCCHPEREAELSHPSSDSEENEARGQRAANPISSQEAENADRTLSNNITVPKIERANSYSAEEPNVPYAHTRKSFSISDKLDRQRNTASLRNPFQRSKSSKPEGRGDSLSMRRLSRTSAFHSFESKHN
Description: In Table 1, the presence or absence of active TRPP2 channels was assessed with the cilium or apical membrane patch exposed to 3 μM cytoplasmic Ca^2+ and the voltage clamped to +40 mV. If no large-conductance channels were seen to open within 2 min, active TRPP2 channels were judged to be absent. […] PS, pregnenolone sulfate; KO, knockout; ND, not determined.
(§1) Electrical recordings were made from primary cilia of mIMCD-3 cells. mIMCD-3 cells (murine epithelial cells from the renal inner medullary collecting duct, (CRL-2123, American Type Culture Collection, Manassas, Va., USA) were cultured on beads that were free to move in the recording chamber. Suction was applied to a recording pipette so that a single primary cilium entered the pipette. If a resistance of at least 1 GΩ formed between the membrane and the pipette, the cilium was excised from the cell. This left the cilium inside the recording pipette in the inside-out configuration. The pipette containing the cilium could then be transferred among different solutions that bathed the cytoplasmic face of the membrane. In one set of experiments (FIGS. 1 and 2), the external solution was replaced by perfusing the pipette (FIG. 14).
All recordings were done under voltage clamp at room temperature (24° C.). Equipment, software, and technical details, including corrections for liquid junction potentials, were conducted as described in the article: Kleene S J, Kleene N K. “The native TRPP2-dependent channel of murine renal primary cilia” Am J Physiol Renal Physiol. 2017; 312: F96-F108, which is herein incorporated by reference in its entirety. During acquisition, currents were low-pass filtered at 2 kHz and digitized at 5 kHz. Total mean channel current was measured as the mean current minus the current attributed to leak channels. The latter was determined from an amplitude histogram. In each cilium reported, the number of large-conductance channels was between 1 and 5. Channel open probabilities were determined from amplitude histograms and are reported only when the number of channels in the membrane was unambiguous. The presence or absence of active TRPP2 channels was assessed with the cilium or patch exposed to 3 μM cytoplasmic Ca^2+ and the voltage clamped to +40 mV. If no large-conductance channels were seen to open within 2 min, active TRPP2 channels were judged to be absent. These cilia have a second Ca^2+-activated channel, TRPM4, but it is not activated by the concentrations of cytoplasmic Ca^2+ used in this study ([…] The half-maximal effect of Ca^2+ on ciliary TRPM4 occurs at 646 μM at +100 mV and 1166 μM at −100 mV.

[3] = system: mIMCD-3 cells; assay: Measuring intracellular calcium (Fura2-AM, F340/F380) in mIMCD-3 cells; assay type: cell-based, murine; details: 200 μM pregnenolone sulfate in 0.4% DMSO
Description: Wild-type (WT) mIMCD-3 cells and a clone of mIMCD-3 cells that lacked TRPP2 (TRPP2 KO) were grown to confluence in a 96-well plate and loaded with Fura2-AM, a ratiometric Ca^2+ indicator dye. The ratio of the fluorescence (after background subtraction) at 340 nm and 380 nm (F340/F380) correlates with the cytoplasmic Ca^2+ concentration. […] Unlike in the electrophysiological ciliary recordings, here the apical surface of the cell, including the cilium, is exposed to the pregnenolone sulfate. […] Responses from individual wells are shown as black circles. The experiment was done with two different passages for each cell line for a total of 19 wells per condition.
Wild-type mIMCD-3 cells and one mIMCD-3 clone with TRPP2 knocked out were grown to confluence in a 96-well plate. Standard external solution with 1 mM probenecid was used for all solutions. […] The ratio of the fluorescence (after background subtraction) at 340 nm and 380 nm (F340/F380) indicates the cytoplasmic Ca^2+ concentration and was measured on a BioTek Synergy 4 plate reader. Background fluorescence (wells with cells, 0.01% pluronic acid, and 0.1% DMSO in standard external solution, but no dye) was subtracted from the F340 and F380 readings. […]

[4] = biological target: T3, ciliary TRPP2-dependent channel (Mus musculus, UniProt J9SQF3); assay: Electrical recording of the large-conductance channel in single excised primary cilia of mIMCD-3 cells; assay type: biochemical, murine; parameters: mean single-channel conductance (slope) / extrapolated reversal potential (x-intercept): dose or concentration left out as unconfirmed; details: for increase of mean channel current (factor): +60 mV
T3 construct: Electrical recordings were made from primary cilia of mIMCD-3 cells; host or cells: mIMCD-3 cells, excised primary cilia (inside-out) or apical membrane patches
T3 sequence (J9SQF3 whole entry): as above
Description: as §1
During recording, the beads coated with cells were stored in a standard external solution containing (in mM) NaCl 140, KCl 5, CaCl2 2, MgCl2 2, sodium pyruvate 2, HEPES 5, and D-glucose 9.4, adjusted to pH 7.4 with NaOH. The recording pipettes also contained this solution except as noted. […] The standard cytoplasmic solution contained (in mM) KCl 140, NaCl 5, CaCl2 0.7, MgCl2 2, HEPES 5, BAPTA 2, and D-glucose 5, adjusted to pH 7.4 with KOH. This solution contained 0.1 μM free Ca^2+. To make a cytoplasmic solution with 3 μM free Ca^2+, BAPTA was replaced with dibromoBAPTA, and the total CaCl2 was increased to 1.4 mM. In buffered solutions, concentrations of free Ca^2+ were estimated by the method of Bers (see Bers D M: “A simple method for the accurate determination of free [Ca] in Ca-EGTA solutions” Am J Physiol Cell Physiol. 1982; 242: C404-C408), which is herein incorporated by reference in its entirety.
All recordings were done under voltage clamp at room temperature (24° C.). Equipment, software, and technical details, including corrections for liquid junction potentials, were conducted as described in the article: Kleene S J, Kleene N K. “The native TRPP2-dependent channel of murine renal primary cilia” Am J Physiol Renal Physiol. 2017; 312: F96-F108, which is herein incorporated by reference in its entirety. During acquisition, currents were low-pass filtered at 2 kHz and digitized at 5 kHz. Total mean channel current was measured as the mean current minus the current attributed to leak channels. The latter was determined from an amplitude histogram. […] Channel open probabilities were determined from amplitude histograms and are reported only when the number of channels in the membrane was unambiguous. The presence or absence of active TRPP2 channels was assessed with the cilium or patch exposed to 3 μM cytoplasmic Ca^2+ and the voltage clamped to +40 mV. If no large-conductance channels were seen to open within 2 min, active TRPP2 channels were judged to be absent.

T1 sequence (Q7TN37 whole entry): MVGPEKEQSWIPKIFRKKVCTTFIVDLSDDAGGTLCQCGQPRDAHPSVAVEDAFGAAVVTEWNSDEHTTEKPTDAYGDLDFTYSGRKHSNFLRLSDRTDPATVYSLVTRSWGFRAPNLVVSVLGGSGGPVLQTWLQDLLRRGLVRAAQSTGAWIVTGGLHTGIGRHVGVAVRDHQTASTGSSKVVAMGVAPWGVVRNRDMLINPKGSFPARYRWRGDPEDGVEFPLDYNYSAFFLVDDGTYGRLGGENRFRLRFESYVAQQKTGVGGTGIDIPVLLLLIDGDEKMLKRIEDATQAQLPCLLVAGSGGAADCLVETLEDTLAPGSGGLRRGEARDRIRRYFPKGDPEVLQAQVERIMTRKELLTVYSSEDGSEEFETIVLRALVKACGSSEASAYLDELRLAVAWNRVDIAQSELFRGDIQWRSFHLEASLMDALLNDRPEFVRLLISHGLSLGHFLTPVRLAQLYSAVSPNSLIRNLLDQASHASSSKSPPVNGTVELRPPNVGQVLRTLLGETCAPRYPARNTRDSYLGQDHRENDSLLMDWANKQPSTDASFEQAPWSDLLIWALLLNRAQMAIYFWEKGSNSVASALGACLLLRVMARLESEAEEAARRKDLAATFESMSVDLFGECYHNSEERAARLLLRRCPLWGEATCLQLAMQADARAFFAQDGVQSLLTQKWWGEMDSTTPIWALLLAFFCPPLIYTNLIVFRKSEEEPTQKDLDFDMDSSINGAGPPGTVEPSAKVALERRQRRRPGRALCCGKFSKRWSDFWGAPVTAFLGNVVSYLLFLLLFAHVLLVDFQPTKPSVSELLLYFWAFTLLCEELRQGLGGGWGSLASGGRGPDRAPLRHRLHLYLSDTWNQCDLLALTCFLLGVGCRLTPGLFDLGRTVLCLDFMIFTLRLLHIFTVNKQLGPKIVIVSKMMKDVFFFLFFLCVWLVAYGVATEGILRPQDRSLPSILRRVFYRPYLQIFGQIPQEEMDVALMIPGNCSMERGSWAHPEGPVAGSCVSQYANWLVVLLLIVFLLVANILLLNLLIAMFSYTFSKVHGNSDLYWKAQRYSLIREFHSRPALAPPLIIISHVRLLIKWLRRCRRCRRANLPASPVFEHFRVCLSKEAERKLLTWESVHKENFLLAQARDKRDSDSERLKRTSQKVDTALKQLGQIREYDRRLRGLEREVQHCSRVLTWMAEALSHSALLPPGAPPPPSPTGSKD

Compound: Nc1ncnc2c1ncn2[C@@H]1O[C@H](COP(=O)(O)OP(=O)([O-])OP(=O)([O-])O)[C@@H](O)[C@H]1O.[Mg+2] [MgATP]
- fraction of TRPM4 current remaining after addition of MgATP [1]: 0.34±0.03

Compound: Pregnenolone sulfate
- incidence of TRPP2-dependent channels ([2]; apical membrane, TRPM3 KO): 0/34
- incidence of TRPP2-dependent channels ([2]; apical membrane, TRPP2 KO): 0/30
- incidence of TRPP2-dependent channels ([2]; apical membrane, wild type): 3/57
- incidence of TRPP2-dependent channels ([2]; ciliary membrane, TRPP2 KO): 0/28
- incidence of TRPP2-dependent channels ([2]; ciliary membrane, wild type): 77/259
- cilia in which channels were observed ([2]; wild type cilia exposed to pregnenolone sulfate): 30%
- cytoplasmic Ca2+ response (Post Stim. F340/F380 − Pre Stim. F340/F380) ([3]; TRPP2 KO mIMCD-3 cells, compared with wild-type): smaller response
- cytoplasmic Ca2+ response (Post Stim. F340/F380 − Pre Stim. F340/F380) ([3]; wild-type mIMCD-3 cells): increased cytoplasmic Ca^2+
- k (Boltzmann slope factor) ([4]; 1 μM external PS, 3 μM cytoplasmic Ca2+): 13.5 ± 1.0 mV
- V1/2 (potential at which open probability is 0.5) ([4]; 1 μM external PS, 3 μM cytoplasmic Ca2+, Vm −40 to +60 mV): −5.6 ± 1.1 mV
- channel activation at 230 μM compared with 75 μM ([4]; 3 μM cytoplasmic Ca2+, FIG. 7): no more effective
- k (Boltzmann slope factor) ([4]; 10 μM external PS, 3 μM cytoplasmic Ca2+): 18.3 ± 1.5 mV
- V1/2 (potential at which open probability is 0.5) ([4]; 10 μM external PS, 3 μM cytoplasmic Ca2+, Vm −40 to +50 mV): −21.4 ± 1.4 mV
- k (Boltzmann slope factor) ([4]; 75 μM external PS, KCl-based external solution, 3 μM cytoplasmic Ca2+): 14.8 ± 0.9 mV
- V1/2 (potential at which open probability is 0.5) ([4]; 75 μM external PS, KCl-based external solution, 3 μM cytoplasmic Ca2+, Vm −140 to −20 mV): −67.2 ± 1.0 mV
- increase of mean channel current (factor) ([4]; […] μM cytoplasmic pregnenolone sulfate, 0.1 μM cytoplasmic Ca2+): 3.6±0.7
- increase of mean channel current (factor) ([4]; […] μM external (pipette) pregnenolone sulfate, 0.1 μM cytoplasmic free Ca2+): 30±12
- extrapolated reversal potential (x-intercept) ([4]; […] μM external pregnenolone sulfate, standard external solution): −67±2 mV
- mean single-channel conductance (slope) ([4]; […] μM external pregnenolone sulfate, standard external solution, fit −40 to +50 mV): 92±3 pS
- fraction of the mean channel current remaining after replacing external solution with one lacking pregnenolone sulfate ([4]; after 75 μM external pregnenolone sulfate, −10 mV, free Ca2+ 3): 0.14±0.08
- channel activity (open probability) ([4]; external pregnenolone sulfate up to 75 μM, 0.1 μM cytoplasmic Ca2+, FIG. 5): significantly increased the channel activity

Reference: US20210299144A1, “USE OF PR[…] TO REDUCE CYST FORMATION IN KIDNEY” (priority 2019, published 2021)
